Legend:
Hela = assay: Inhibition of tumor cell proliferation, Hela; assay type: cell-based, human; settings: 72 hours
Experimental: (§1) Human tumor cell lines: Hela leukemia HL-60, malignant melanocarcinoma B16, oral epidermoid carcinoma (KB), lung carcinoma (A549), breast carcinoma MCF-7, adenocarcinoma of stomach.
(§2) Animal tumor cell lines: Walker carcinoma, LLC-WRC-256, malignant melanoma (RMMI 1846), 3T3, and S-180 sarcoma (CCRF-180). All lines were routinely cultured in the RPMI1640 medium supplemented 20% fetal calf serum. The experiment was carried out in 96 microplate, each well had 5×10^5 cells and given desired concentration of 1 μg/ml (1×10^−6 g/ml) drug. Then the plate was incubated at 37° C. in an atmosphere of humidified air enriched with 5 percent carbon dioxide for 72 hours.
Inhibition percent rate of tumor cell proliferation was obtained according to the bellow formula. [formula]
Animal tumor cell lines: Walker carcinoma, LLC-WRC-256, malignant melanoma (RMMI 1846), 3T3, and S-180 sarcoma (CCRF-180). All lines were routinely cultured in the RPMI1640 medium supplemented 20% fetal calf serum. The experiment was carried out in 96 microplate, each well had 5×10^5 cells and given desired concentration of 1 μg/ml (1×10^−6 g/ml) drug. Then the plate was incubated at 37° C. in an atmosphere of humidified air enriched with 5 percent carbon dioxide for 72 hours. Concentration of CUR or PK-CUR-NP is 50ng/ml.
Animal tumor cell lines: Walker carcinoma, LLC-WRC-256, malignant melanoma (RMMI 1846), 3T3, and S-180 sarcoma (CCRF-180). All lines were routinely cultured in the RPMI1640 medium supplemented 20% fetal calf serum. The experiment was carried out in 96 microplate, each well had 5×10^5 cells and given desired concentration of 1 μg/ml (1×10^−6 g/ml) drug. Then the plate was incubated at 37° C. in an atmosphere of humidified air enriched with 5 percent carbon dioxide for 72 hours. Concentration of ELE or PK-ELE-NP is 50 ng/ml.
Animal tumor cell lines: Walker carcinoma, LLC-WRC-256, malignant melanoma (RMMI 1846), 3T3, and S-180 sarcoma (CCRF-180). All lines were routinely cultured in the RPMI1640 medium supplemented 20% fetal calf serum. The experiment was carried out in 96 microplate, each well had 5×10^5 cells and given desired concentration of 1 μg/ml (1×10^−6 g/ml) drug. Then the plate was incubated at 37° C. in an atmosphere of humidified air enriched with 5 percent carbon dioxide for 72 hours. Concentration of CPT or PK-CPT-NP is 50 ng/ml.

L1210 = assay: Growth of transplanted tumor, L1210 (tumor weight); assay type: in vivo, mice; settings: 20 mg/kg i.p. from second day, tumor weight on 12th day
Experimental: Male mice, weight 20-22 g, were used in the experiment. 1×10^7 tumor cells were injected to mouse and PK-HHT-NP injected intraperitoneally began second day. All mice were sacrificed on the 12th days, isolated the tumor and weighed and calculated the inhibition rate of tumor weight.
Male mice, weight 20-22 g, were used in the experiment. 1×10^7 tumor cells were injected to mouse and CUR and PK-CUR-NP injected intraperitoneally began second day. All mice were sacrificed on the 12th days, isolated the tumor and weighed and calculated the inhibition rate of tumor weight.
Male mice, weight 20-22 g, were used in the experiment. 1×10^7 tumor cells were injected to mouse and ELE injected intraperitoneally began second day. All mice were sacrificed on the 12th days, isolated the tumor and weighed and calculated the inhibition rate of tumor weight.
Male mice, weight 20-22 g, were used in the experiment. 1×10^7 tumor cells were injected to mouse and CPT injected intraperitoneally began second day. All mice were sacrificed on the 12th days, isolated the tumor and weighed and calculated the inhibition rate of tumor weight.

HL-60 = assay: Inhibition of tumor cell proliferation, HL-60; assay type: cell-based, human; settings: for Inhibition (%): 72 hours
Experimental: Human leukemia cells (HL-60) were grown in RPMI Medium 1640 supplemented with 10% (v/v) heat-inactivated FBS (56° C. for 30 min) at 37° C. in a humidified 95% air/5% CO2 atmosphere. Cells were seeded at a level of 2×10^5 cells/ml. Cells were allowed to attain a maximum density of 1.2×10^6 cells/ml before being passed by dilution into fresh medium to a concentration of 2×10^5 cells/ml.
Cell lines were routinely cultured in the RPMI1640 medium supplemented 20% fetal calf serum. The experiment was carried out in 96 microplate, each well had 5×10^5 cells and given desired concentration of drug (1 μg/ml). Then the plate was incubated at 37° C. in an atmosphere of humidified air enriched with 5 percent carbon dioxide for 72 hours. Inhibition percent rate of tumor cell proliferation was obtained according to the bellow formula. [formula]
as §1, §2
Inhibition percent rate of tumor cell proliferation was obtained according to the bellow formula. [formula] […]

[1] = system: Human promyelocytic leukemia cells (HL-60); assay: Induced differentiation of HL-60 cells (NBT reduction); assay type: cell-based; settings: 0.1 μg/ml (10×10^−7 g/ml)
Experimental: (§3) Human promyelocytic leukemia cells (HL-60) were grown in RPMI Medium 1640 supplemented with 10% (v/v) heat-inactivated FBS (56° C. for 30 min) at 37° C. in a humidified 95% air/5% CO2 atmosphere. Cells were seeded at a level of 2×10^5 cells/ml. Cells were allowed to attain a maximum density of 1.2×10^6 cells/ml before being passed by dilution into fresh medium to a concentration of 2×10^5 cells/ml. Differentiation was induced in HL-60 cells by treatment with 0.1 μg/ml ([…]) of CUR or PK-CUR-NP. Cell differentiation was measured by the ability of cells to reduce NBT.
as §3, with “ELE” for “CUR”, “PK-ELE-NP.” for “PK-CUR-NP.”, “NBT. Increasing NBT % means that cancer cells are differentiation.” for “NBT.”
as §3, with “CPT” for “CUR”, “PK-CPT-NP.” for “PK-CUR-NP.”, “NBT. Increasing NBT % means that cancer cells are differentiation.” for “NBT.”

Molecule | inhibition at 0.05 µg/mL (Hela; Homo sapiens, HeLa, 50 ng/ml) | Inhibition (%) of transplanted tumor (L1210) | inhibition at 0.05 µg/mL (HL-60; Homo sapiens, HL-60, 72 h, 50 ng/ml) | NBT % (percentage of cells capable of reducing NBT) [1] | Inhibition (%) (Hela; 50 ng/ml) | Inhibition (%) (HL-60; 50 ng/ml) | inhibition at 1 µg/mL (Hela; Homo sapiens, HeLa, 1 μg/ml) | inhibition at 1 µg/mL (HL-60; Homo sapiens, HL-60, 72 h, 1 μg/ml) | inhibition at 1 µg/mL (HL-60; Homo sapiens, HL-60, 72 h, Example 23, 1 μg/ml, NP dose equivalent of free HHT)
CC[C@@]1(O)C(=O)OCc2c1cc1n(c2=O)Cc2cc3ccccc3nc2-1 [CPT, Camptothecin] | 60.8 ± 12.2% | 68.5 ± 9.8% | 70.8 ± 11.2% | 65.8 ± 9.1% | – | – | – | – | –
C=C1C[C@@]2(O)O[C@@]3(C[C@H]2C(C)C)[C@@H](C)CC[C@@H]13 [CUR, Curcumol] | – | 70.8 ± 9.0% | – | 68.5 ± 8.5% | 67.2 ± 10.4% | 76.8 ± 12.8% | – | – | –
COC(=O)C[C@](O)(CCCC(C)(C)O)C(=O)O[C@@H]1C(OC)=C[C@]23CCCN2CCc2cc4c(cc2[C@H]13)OCO4 [HHT, Homoharringtonine] | – | 87 ± 9% | – | – | – | – | 75.6 ± 8% | 70.8 ± 9% | 70.5 ± 8%
Eelemene | – | 71.8 ± 9.5% | – | 69.5 ± 10.1% | 69.8 ± 11.2% | 78.9 ± 12.5% | – | – | –

From patent US20040192641A1, “Special preparation of anticancer drugs made by novel nanotechnology” (priority 2003, published 2004)
